The nature of series [1]: partition coefficient based on the octanol extraction method. It counts as physicochemical. The following applies: octanol / 10 mmol/L phosphate buffer (pH 7.4), radioactivity. As to the method: Partition coefficients based on the octanol extraction method (hereinafter referred to as log Poctanol) were measured, which are generally used as an indicator of permeability of compounds through the blood-brain barrier (hereinafter referred to as BBB).
To 2 mL of octanol, 10 μL of a solution containing Compound 4 (Example 5) and 2 mL of a 10 mmol/L phosphate buffer (pH 7.4) were added and stirred for 30 seconds. After the mixture was centrifuged (2000 rpm×60 min.) with a low-speed centrifuge (model: […] CT4D manufactured by Hitachi Koki Co., Ltd.), the octanol layer and the water layer were sampled each in an amount of 1 mL, and subjected to measurement of radioactivity with an autowell gamma system (manufactured by Aloka, Type: ARC-301B). Using the obtained radioactivity, log Poctanol was calculated in accordance with the equation (2).

Series [2] addresses T1, intracerebral amyloid (aggregated Aβ1-42 injected into amygdaloid nucleus) (Homo sapiens, UniProt P05067).
T1 construct: dissolving Aβ1-42 (Wako Pure Chemical Industries, Ltd.) in a phosphate buffer (pH 7.4); purchased Wako Pure Chemical Industries, Ltd
Put plainly: confirmation of imaging of amyloid in brain (autoradiogram of brain slice). It counts as in vivo, male Wistar rat. The following applies: rat, tail vein, brain removed 30 minutes after the injection. As to the method: The following experiment was carried out in order to examine whether amyloid in brain can be imaged by the compound of the present invention.
(1) A 1 mg/mL suspension of aggregated Aβ (hereinafter referred to as amyloid suspension in this Example) was obtained by dissolving Aβ1-42 (Wako Pure Chemical Industries, Ltd.) in a phosphate buffer (pH 7.4), followed by shaking at 37° C. for 72 hours.
(2) 2.5 μL (corresponding to […]) of the amyloid suspension was injected into an amygdaloid nucleus on one side of a male Wistar rat (7-week old). As a control, 2.5 μL of a phosphate buffered physiological saline solution (pH 7.4) was injected into an amygdaloid nucleus on the other side of the rat. The rats were examined 3 days after the injection of the amyloid suspension and the phosphate buffered physiological saline solution.
(3) Compound 4 was dissolved in a 10 mg/mL ascorbic acid-containing physiological saline solution to obtain a sample solution (84 MBq/mL in radioactivity concentration). This solution was injected into the rat through the tail vein (dosage: 0.5 mL, dosed radioactivity: 42 MBq equivalent).
(4) Brain was removed 30 minutes after the injection to prepare a brain slice of 10 μm in thickness with a microtome (type: CM3050S, manufactured by LEICA). […]

Series [3] is described as follows: transferability into brain and clearance. The following applies: rats, intravenous injection. How it is done: Using Compound 4, a time course change of radioactive accumulation in brain of male Wistar rats (7-week old) was measured.
The rats were sacrificed by bleeding from abdominal artery, and brains were removed and subjected to measurement of radioactivity (hereinafter referred to as A in this Example) with an autowell gamma system (Type: ARC-301B manufactured by Aloka Co., Ltd.) and further subjected to measurement of mass of brains 2, 5, 30 and 60 minutes after the injection. Also, radioactivity (hereinafter referred to as B in this Example) of 0.05 mL of a 1000-fold diluted solution of the injected solution was measured in the same manner as above. Using these measurement results, radioactive distributions per unit weight of brain (% ID/g) at the respective time points were calculated in accordance with the following formula (5). Three animals were used for experiment at the respective time points.

T1 sequence (P05067 672-713): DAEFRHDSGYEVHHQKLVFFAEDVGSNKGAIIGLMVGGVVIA

Take “2-[4′-(3″-[^18F]fluoropropoxy)phenyl]-6-methoxyimidazo[1,2-a]pyridine [Compound 4]”: the logPoctanol value in series [1] is on record as 1.8. Besides, in series [2], the “accumulation of radioactivity on intracerebral amyloid” value is given as “possesses a property of accumulating on intracerebral amyloid”. The “Radioactive concentration per unit weight in brain” value in series [3] (after 2 min.) was 1.36 % ID/g; in series [3] (after 5 min.) it was 0.93 % ID/g; in series [3] (after 30 min.), 0.23 % ID/g; in series [3] (after 60 min.) it was 0.13 % ID/g.

These data come from US8277777B2, “Compound having affinity for amyloid” (Nihon Medi-Physics Co., Ltd., priority 2006, dated 2012).
